{"source": "patent US20260206743A1", "about": "“PROPINEB NANOSUSPENSION” (priority 2022, published 2026)", "origin": "cited, not measured here", "note": "Where two headings read alike, the source gives them in different places."}
{"substance": "poly [1,2-propylene bis(dithiocarbamate)] zinc [Propineb]", "values": [{"measurement": "Solubility in water", "setting": "20° C.", "value": "< 10", "unit": "µg/mL"}, {"measurement": "Solubility in organic solvent", "setting": "DMF+DMSO mixture", "value": "exceed 200 g/L"}, {"measurement": "Solubility in organic solvent", "setting": "dichloromethane", "value": "< 100", "unit": "µg/mL"}, {"measurement": "Solubility in organic solvent", "setting": "hexane", "value": "< 100", "unit": "µg/mL"}, {"measurement": "Solubility in organic solvent", "setting": "toluene", "value": "< 100", "unit": "µg/mL"}]}
